Assay results published in PubChem BioAssay AID2060906 (Molecular Pharmacology Branch, DTP, NCI, 2025).
Blank lines part the entries; values can stand above or below the molecule they belong to.

Test system: 485176-168-R4-J1-PDC complex spheroid growth
Assay: Anticancer human tumor 485176-168-R4-J1-PDC patient-derived pancreatic adenocarcinoma cell line growth inhibition [RAS]
Conditions: for IC50: curve of first compound; for viability, T/C: stronger effect = lower value
Procedure, shortened: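 Agents were tested in combination matrices in half-log decrements from a top concentration at or near clinical Cmax (10 microM if undetermined). Targets were multi-cell spheroids of tumour lines plus HUVEC and MSC stromal cells.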
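Note: spheroids exposed to compounds for seven days before readout.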
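Throughout, for viability, T/C: luminescence viability expressed relative to DMSO vehicle wells set as 100%.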

IC50 (second compound 0.000949 µM): 13.9 nM | IC50 (second compound 0.003 µM): 12.4 nM | IC50 (second compound 0.00949 µM): 11.6 nM | IC50 (second compound 0.03 µM): 11.2 nM | IC50 (second compound 0.0949 µM): 10.3 nM | IC50 (second compound 0.3 µM): 7.16 nM
Structure (SMILES): CCc1c2c(nc3ccc(O)cc13)-c1cc3c(c(=O)n1C2)COC(=O)[C@]3(O)CC + CCn1c(-c2cc(N3CCN(C)CC3)cnc2C(C)OC)c2c3cc(ccc31)-c1csc(n1)CC(NC(=O)C1CC1C)C(=O)N1CCCC(N1)C(=O)OCC(C)(C)C2
viability, T/C (second compound 0.000949 µM, first compound 0.000949 µM): 104% | viability, T/C (second compound 0.000949 µM, first compound 0.003 µM): 77.5% | viability, T/C (second compound 0.000949 µM, first compound 0.00949 µM): 64.3% | viability, T/C (second compound 0.000949 µM, first compound 0.03 µM): 30.8% | viability, T/C (second compound 0.000949 µM, first compound 0.0949 µM): 16.6% | viability, T/C (second compound 0.000949 µM, first compound 0.3 µM): 9.25% | viability, T/C (second compound 0.003 µM, first compound 0.000949 µM): 95% | viability, T/C (second compound 0.003 µM, first compound 0.003 µM): 86% | viability, T/C (second compound 0.003 µM, first compound 0.00949 µM): 55.6% | viability, T/C (second compound 0.003 µM, first compound 0.03 µM): 27.8% | viability, T/C (second compound 0.003 µM, first compound 0.0949 µM): 16.1% | viability, T/C (second compound 0.003 µM, first compound 0.3 µM): 9.83% | viability, T/C (second compound 0.00949 µM, first compound 0.000949 µM): 81.2% | viability, T/C (second compound 0.00949 µM, first compound 0.003 µM): 77.8% | viability, T/C (second compound 0.00949 µM, first compound 0.00949 µM): 50.3% | viability, T/C (second compound 0.00949 µM, first compound 0.03 µM): 32.4% | viability, T/C (second compound 0.00949 µM, first compound 0.0949 µM): 16.2% | viability, T/C (second compound 0.00949 µM, first compound 0.3 µM): 7.59% | viability, T/C (second compound 0.03 µM, first compound 0.000949 µM): 70.7% | viability, T/C (second compound 0.03 µM, first compound 0.003 µM): 72.3% | viability, T/C (second compound 0.03 µM, first compound 0.00949 µM): 52.3% | viability, T/C (second compound 0.03 µM, first compound 0.03 µM): 28.3% | viability, T/C (second compound 0.03 µM, first compound 0.0949 µM): 15.9% | viability, T/C (second compound 0.03 µM, first compound 0.3 µM): 12% | viability, T/C (second compound 0.0949 µM, first compound 0.000949 µM): 70.1% | viability, T/C (second compound 0.0949 µM, first compound 0.003 µM): 76.8% | viability, T/C (second compound 0.0949 µM, first compound 0.00949 µM): 45.2% | viability, T/C (second compound 0.0949 µM, first compound 0.03 µM): 32.5% | viability, T/C (second compound 0.0949 µM, first compound 0.0949 µM): 17% | viability, T/C (second compound 0.0949 µM, first compound 0.3 µM): 9.84% | viability, T/C (second compound 0.3 µM, first compound 0.000949 µM): 78.3% | viability, T/C (second compound 0.3 µM, first compound 0.003 µM): 62.1% | viability, T/C (second compound 0.3 µM, first compound 0.00949 µM): 47.3% | viability, T/C (second compound 0.3 µM, first compound 0.03 µM): 27.6% | viability, T/C (second compound 0.3 µM, first compound 0.0949 µM): 15.2% | viability, T/C (second compound 0.3 µM, first compound 0.3 µM): 6.04%

IC50 (second compound 0.000949 µM): > 1000 nM | IC50 (second compound 0.003 µM): > 1000 nM | IC50 (second compound 0.00949 µM): > 1000 nM | IC50 (second compound 0.03 µM): > 1000 nM | IC50 (second compound 0.0949 µM): > 1000 nM | IC50 (second compound 0.3 µM): > 1000 nM
Structure (SMILES): C=CC(=O)Nc1cc(Nc2nccc(-c3cn(C)c4ccccc34)n2)c(OC)cc1N(C)CCN(C)C + CCn1c(-c2cccnc2C(C)OC)c2c3cc(ccc31)N1CCOC(CC(NC(=O)C(C(C)C)N(C)C(=O)C3(F)CCN(C(=O)C#CC(C)(C)N(C)C)CC3)C(=O)N3CCCC(N3)C(=O)OCC(C)(C)C2)C1
viability, T/C (second compound 0.000949 µM, first compound 0.00316 µM): 114% | viability, T/C (second compound 0.000949 µM, first compound 0.01 µM): 109% | viability, T/C (second compound 0.000949 µM, first compound 0.0316 µM): 102% | viability, T/C (second compound 0.000949 µM, first compound 0.1 µM): 97.6% | viability, T/C (second compound 0.000949 µM, first compound 0.316 µM): 84.5% | viability, T/C (second compound 0.000949 µM, first compound 1 µM): 72% | viability, T/C (second compound 0.003 µM, first compound 0.00316 µM): 98.2% | viability, T/C (second compound 0.003 µM, first compound 0.01 µM): 105% | viability, T/C (second compound 0.003 µM, first compound 0.0316 µM): 90.3% | viability, T/C (second compound 0.003 µM, first compound 0.1 µM): 85.6% | viability, T/C (second compound 0.003 µM, first compound 0.316 µM): 99.1% | viability, T/C (second compound 0.003 µM, first compound 1 µM): 61.4% | viability, T/C (second compound 0.00949 µM, first compound 0.00316 µM): 104% | viability, T/C (second compound 0.00949 µM, first compound 0.01 µM): 109% | viability, T/C (second compound 0.00949 µM, first compound 0.0316 µM): 102% | viability, T/C (second compound 0.00949 µM, first compound 0.1 µM): 88.2% | viability, T/C (second compound 0.00949 µM, first compound 0.316 µM): 80.8% | viability, T/C (second compound 0.00949 µM, first compound 1 µM): 69% | viability, T/C (second compound 0.03 µM, first compound 0.00316 µM): 86.8% | viability, T/C (second compound 0.03 µM, first compound 0.01 µM): 113% | viability, T/C (second compound 0.03 µM, first compound 0.0316 µM): 114% | viability, T/C (second compound 0.03 µM, first compound 0.1 µM): 102% | viability, T/C (second compound 0.03 µM, first compound 0.316 µM): 89.9% | viability, T/C (second compound 0.03 µM, first compound 1 µM): 58.7% | viability, T/C (second compound 0.0949 µM, first compound 0.00316 µM): 81.6% | viability, T/C (second compound 0.0949 µM, first compound 0.01 µM): 77.9% | viability, T/C (second compound 0.0949 µM, first compound 0.0316 µM): 81.6% | viability, T/C (second compound 0.0949 µM, first compound 0.1 µM): 96.5% | viability, T/C (second compound 0.0949 µM, first compound 0.316 µM): 92.3% | viability, T/C (second compound 0.0949 µM, first compound 1 µM): 57.1% | viability, T/C (second compound 0.3 µM, first compound 0.00316 µM): 87.6% | viability, T/C (second compound 0.3 µM, first compound 0.01 µM): 93% | viability, T/C (second compound 0.3 µM, first compound 0.0316 µM): 82.7% | viability, T/C (second compound 0.3 µM, first compound 0.1 µM): 93.1% | viability, T/C (second compound 0.3 µM, first compound 0.316 µM): 78.3% | viability, T/C (second compound 0.3 µM, first compound 1 µM): 65.9%
